Here are results for 2 molecules from ChEMBL document CHEMBL5653635, “Induction of apoptosis and cell cycle arrest by CP-358,774, an inhibitor of epidermal growth factor receptor tyrosine kinase” (Cancer Res, 1997).

The term inhibition denotes the drop in the measured response relative to a control, in per cent. The IC50 is the concentration at which inhibition is half-maximal.

The target in series [1] is Insulin-like growth factor 1 receptor (Homo sapiens) (UniProt P08069). In words: Inhibition of IGF-IR (711 to 1377 residues) (unknown origin) expressed in baculovirus-infected Sf9 cells at 20 uM incubated for 8 mins by colorimetry based assay relative to control.
In series [2] the target is Insulin receptor (Homo sapiens) (UniProt P06213). The series is described as follows: Inhibition of human recombinant insulin receptor expressed in baculovirus at 10 uM incubated for 8 mins by colorimetry based assay.
Series [3] has as its target Insulin-like growth factor 1 receptor (Homo sapiens) (UniProt P08069). In words: Inhibition of IGF-IR (711 to 1377 residues) (unknown origin) expressed in baculovirus-infected Sf9 cells at 10 uM incubated for 8 mins by colorimetry based assay.
For series [4] the target is unchanged. The series is described as follows: Inhibition of insulin induced phosphorylation of IRS-1 in serum starved human HN5 cells at 1 uM preincubated for 1 hr followed by insulin stimulation and measured after 5 mins by immunoblot analysis. The following applies: time 65.0 min. It is filed as cell-based. On the technique in general: In western blotting, separated proteins are transferred to a membrane and probed.

Series [5] addresses Insulin receptor (Homo sapiens) (UniProt P06213). The series is described as follows: Inhibition of insulin induced phosphorylation of insulin receptor in serum starved human HN5 cells at 1 uM preincubated for 1 hr followed by insulin stimulation and measured after 5 mins by immunoblot analysis. It counts as cell-based. Conditions: time 65.0 min.
Series [6] has as its system DiFi. The series is described as follows: Antiproliferative activity against human DiFi cells assessed as percentage of viable cells at 1 uM measured after 24 hrs by coulter counter method (reference value: 98+/-0.8%). It counts as functional.
Series [7] can be described thus: Antiproliferative activity against raf-transformed mouse NIH3T3 cells assessed as inhibition of cell viability. It is filed as toxicity, cell-based.
The test system of series [8] is HN5. In words: Antiproliferative activity against human HN5 cells assessed as inhibition of cell viability at 50 nM. It is filed as functional, cell-based.
Series [9] deals with HN5. In words: Antiproliferative activity against human HN5 cells assessed as inhibition of cell viability at 250 nM relative to control. It counts as functional.
In series [10] the test system is HN5. In words: Induction of cell cycle arrest in human HN5 cells assessed as reduction in accumulation of cells in S phase at 1 uM measured after 48 hrs by PI staining based flow cytometry analysis (reference value: 55%). It is filed as functional. Set-up: scale not given: the % may be the effect or the level left. (In general: A flow cytometer gives signals particle by particle.)

The test system of series [11] is HN5. The series is described as follows: Induction of cell cycle arrest in human HN5 cells assessed as increase in accumulation of cells in G1 phase at 1 uM measured after 48 hrs by PI staining based flow cytometry analysis (reference value: 24%). It counts as functional.
Series [12] deals with DiFi. In words: Induction of cell cycle arrest in human DiFi cells assessed as decrease in cell percentage in S phase at 0.1 uM measured after 24 hrs by BrdUrd incorporation based flow cytometry analysis (reference value: 14 +- 0.5%). It is filed as functional. Set-up: scale not given: the % may be the effect or the level left.
Series [13] concerns DiFi. The series is described as follows: Induction of cell cycle arrest in human DiFi cells assessed as decrease in cell percentage in S phase at 1 uM measured after 24 hrs by BrdUrd incorporation based flow cytometry analysis (reference value: 14 +- 0.5%). It is filed as functional. More on the design: scale not given: the % may be the effect or the level left.
Series [14] relates to DiFi. In words: Induction of cell cycle arrest in human DiFi cells assessed as increase in cell percentage in G1 phase at 0.1 uM measured after 24 hrs by BrdUrd incorporation based flow cytometry analysis (reference value: 82 +- 0.9%). It counts as functional.
Series [15] has as its system DiFi. In words: Induction of cell cycle arrest in human DiFi cells assessed as increase in cell percentage in G1 phase at 1 uM measured after 24 hrs by BrdUrd incorporation based flow cytometry analysis (reference value: 82 +- 0.9%). It counts as functional.
Series [16] concerns DiFi. The series is described as follows: Induction of apoptosis in human DiFi cells assessed as accumulation of cells at sub-G1 phase at 1 uM measured after 24 hrs by PI staining based flow cytometry analysis. It is filed as functional, cell-based.
Series [17] concerns HN5. The series is described as follows: Induction of apoptosis in human HN5 cells assessed as decrease in cell population at 1 uM measured after 24 hrs by PI staining based flow cytometry analysis. It is filed as functional.
In series [18] the test system is DiFi. The series is described as follows: Induction of apoptosis in human DiFi cells assessed as accumulation of cells at sub-G1 phase at 1 uM measured after 24 hrs in presence of IGF-1 by PI staining based flow cytometry analysis. It counts as functional, cell-based.
In series [19] the test system is DiFi. The series is described as follows: Induction of apoptosis in human DiFi cells assessed as DNA fragmentation by measuring DNA ladders at 1 uM measured after 24 hrs by agarose gel electrophoresis analysis. It counts as functional, cell-based.
The test system of series [20] is DiFi. In words: Induction of apoptosis in human DiFi cells assessed as DNA fragmentation at 1 uM measured after 24 hrs in presence of IGF-1 by agarose gel electrophoresis analysis. It counts as functional, cell-based.
For series [21], the system named is DiFi. The series is described as follows: Induction of apoptosis in human DiFi cells assessed as decrease in number of normal cells at 1 uM incubated for 24 hrs by annexin V-FITC and PI staining based flow cytometry analysis. It is filed as functional, cell-based.
Series [22] deals with DiFi. The series is described as follows: Induction of apoptosis in human DiFi cells assessed as increase in number of necrotic cells at 1 uM incubated for 24 hrs by annexin V-FITC and PI staining based flow cytometry analysis. It counts as functional, cell-based.
Series [23] relates to DiFi. The series is described as follows: Induction of apoptosis in human DiFi cells assessed as protection of annexin V-FITC binding at 1 uM incubated for 24 hrs in presence of IGF-1 by annexin V-FITC and PI staining based flow cytometry analysis relative to control. It is filed as functional.
Series [24] deals with DiFi. In words: Induction of PARP cleavage in human DiFi cells assessed as decrease in Mr 116000 fragments at 1 uM incubated for 24 hrs by Western blotting analysis. It is filed as functional, cell-based.
Series [25] has as its system DiFi. The series is described as follows: Induction of PARP cleavage in human DiFi cells assessed as increase in Mr 85000 fragments at 1 uM incubated for 24 hrs by Western blotting analysis. It is filed as functional, cell-based.
Series [26] deals with DiFi. The series is described as follows: Induction of PARP cleavage in human DiFi cells assessed as increase in Mr 85000 fragments at 8 ug/ml […] incubated for 24 hrs by Western blotting analysis. It is filed as functional, cell-based. Conditions: dose 8.0 µg/ml.
The test system of series [27] is DiFi. The series is described as follows: Induction of PARP cleavage in human DiFi cells assessed as decrease in Mr 116000 fragments at 1 uM incubated for 24 hrs in presence of IGF-1 by Western blotting analysis. It is filed as functional, cell-based.
Series [28] has as its system DiFi. The series is described as follows: Induction of PARP cleavage in human DiFi cells assessed as increase in Mr 85000 fragments at 1 uM incubated for 24 hrs in presence of IGF-1 by Western blotting analysis. It is filed as functional, cell-based.
Series [29] relates to DiFi. The series is described as follows: Induction of cell cycle arrest in human DiFi cells assessed as accumulation of cells at G1 phase at 1 uM incubated for 24 hrs by PI staining based flow cytometry analysis (reference value: 64%). It counts as functional.
Series [30] has as its system DiFi. In words: Induction of cell cycle arrest in human DiFi cells assessed as accumulation of cells at S phase at 1 uM incubated for 24 hrs by PI staining based flow cytometry analysis (reference value: 8 %). It is filed as functional.
In series [31] the test system is DiFi. In words: Induction of cell cycle arrest in human DiFi cells assessed as accumulation of cells at G2 phase at 1 uM incubated for 24 hrs by PI staining based flow cytometry analysis (reference value: 28%). It is filed as functional.
For series [32], the system named is DiFi. In words: Induction of apoptosis in human DiFi cells at 1 uM incubated for 24 hrs by PI staining based flow cytometry analysis (reference value: 2.3%). It is filed as functional.
The test system of series [33] is DiFi. The series is described as follows: Induction of apoptosis in human DiFi cells at 1 uM measured after 24 hrs by annexin V-FITC and PI staining based flow cytometry analysis (reference value: 6%). It is filed as functional.
Series [34] relates to DiFi. The series is described as follows: Induction of cell cycle arrest in human DiFi cells assessed as accumulation of cells at G1 phase at 1 uM incubated for 24 hrs in presence of IGF-1 by PI staining based flow cytometry analysis (reference value: 64%). It is filed as functional.
In series [35] the test system is DiFi. In words: Induction of cell cycle arrest in human DiFi cells assessed as accumulation of cells at S phase at 1 uM incubated for 24 hrs in presence of IGF-1 by PI staining based flow cytometry analysis (reference value: 8 %). It counts as functional.
Series [36] relates to DiFi. The series is described as follows: Induction of cell cycle arrest in human DiFi cells assessed as accumulation of cells at G2 phase at 1 uM incubated for 24 hrs in presence of IGF-1 by PI staining based flow cytometry analysis (reference value: 28%). It counts as functional.
The subject of series [37] is DiFi. In words: Induction of apoptosis in human DiFi cells at 1 uM incubated for 24 hrs in presence of IGF-1 by PI staining based flow cytometry analysis (reference value: 2.3%). It counts as functional.
For series [38], the system named is DiFi. The series is described as follows: Induction of apoptosis in human DiFi cells at 1 uM measured after 24 hrs in presence of IGF-1 by annexin V-FITC and PI staining based flow cytometry analysis (reference value: 6%). It is filed as functional.

SMILES strings stand for the structures. Active and inactive are the calls of the source. The rule behind the calls is not given here.

Sequence of Insulin-like growth factor 1 receptor (Homo sapiens) (P08069 31-736 limits assumed): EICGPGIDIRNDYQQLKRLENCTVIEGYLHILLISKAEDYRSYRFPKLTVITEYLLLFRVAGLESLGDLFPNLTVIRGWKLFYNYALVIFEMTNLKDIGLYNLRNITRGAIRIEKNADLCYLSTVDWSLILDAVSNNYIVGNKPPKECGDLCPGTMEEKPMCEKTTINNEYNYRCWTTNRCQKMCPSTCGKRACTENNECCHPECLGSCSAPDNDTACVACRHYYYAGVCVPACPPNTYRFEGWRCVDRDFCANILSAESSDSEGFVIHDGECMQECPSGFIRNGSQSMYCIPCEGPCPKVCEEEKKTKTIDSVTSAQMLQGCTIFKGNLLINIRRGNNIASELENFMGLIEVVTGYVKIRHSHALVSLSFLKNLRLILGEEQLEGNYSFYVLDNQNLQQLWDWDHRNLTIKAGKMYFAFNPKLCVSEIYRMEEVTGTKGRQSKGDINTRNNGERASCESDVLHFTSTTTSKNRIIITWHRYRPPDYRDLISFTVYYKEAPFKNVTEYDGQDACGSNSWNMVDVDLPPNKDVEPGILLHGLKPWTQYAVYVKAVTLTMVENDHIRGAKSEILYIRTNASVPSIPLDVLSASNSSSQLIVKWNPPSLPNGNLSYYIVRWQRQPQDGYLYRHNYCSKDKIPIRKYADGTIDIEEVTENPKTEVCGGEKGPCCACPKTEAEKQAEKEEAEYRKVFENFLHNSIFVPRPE
Sequence of Insulin-like growth factor 1 receptor (Homo sapiens) (P08069 741-1367 limits assumed): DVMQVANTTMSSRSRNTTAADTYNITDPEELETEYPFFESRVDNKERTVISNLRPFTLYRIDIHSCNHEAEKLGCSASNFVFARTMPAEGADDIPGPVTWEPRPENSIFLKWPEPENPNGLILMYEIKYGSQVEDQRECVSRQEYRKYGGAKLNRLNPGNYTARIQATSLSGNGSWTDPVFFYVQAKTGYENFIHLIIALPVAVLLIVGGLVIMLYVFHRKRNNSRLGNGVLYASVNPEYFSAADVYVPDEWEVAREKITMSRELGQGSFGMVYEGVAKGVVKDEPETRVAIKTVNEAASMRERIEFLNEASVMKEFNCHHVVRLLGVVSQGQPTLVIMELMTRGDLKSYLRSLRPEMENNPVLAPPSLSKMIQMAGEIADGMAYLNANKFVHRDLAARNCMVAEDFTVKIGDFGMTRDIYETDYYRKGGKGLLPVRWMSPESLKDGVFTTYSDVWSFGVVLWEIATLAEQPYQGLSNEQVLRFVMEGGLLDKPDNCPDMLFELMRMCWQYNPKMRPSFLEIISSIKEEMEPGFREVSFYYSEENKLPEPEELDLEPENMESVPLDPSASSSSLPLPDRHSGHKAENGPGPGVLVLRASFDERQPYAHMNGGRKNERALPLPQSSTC
Sequence of Insulin receptor (Homo sapiens) (P06213 28-758 limits assumed): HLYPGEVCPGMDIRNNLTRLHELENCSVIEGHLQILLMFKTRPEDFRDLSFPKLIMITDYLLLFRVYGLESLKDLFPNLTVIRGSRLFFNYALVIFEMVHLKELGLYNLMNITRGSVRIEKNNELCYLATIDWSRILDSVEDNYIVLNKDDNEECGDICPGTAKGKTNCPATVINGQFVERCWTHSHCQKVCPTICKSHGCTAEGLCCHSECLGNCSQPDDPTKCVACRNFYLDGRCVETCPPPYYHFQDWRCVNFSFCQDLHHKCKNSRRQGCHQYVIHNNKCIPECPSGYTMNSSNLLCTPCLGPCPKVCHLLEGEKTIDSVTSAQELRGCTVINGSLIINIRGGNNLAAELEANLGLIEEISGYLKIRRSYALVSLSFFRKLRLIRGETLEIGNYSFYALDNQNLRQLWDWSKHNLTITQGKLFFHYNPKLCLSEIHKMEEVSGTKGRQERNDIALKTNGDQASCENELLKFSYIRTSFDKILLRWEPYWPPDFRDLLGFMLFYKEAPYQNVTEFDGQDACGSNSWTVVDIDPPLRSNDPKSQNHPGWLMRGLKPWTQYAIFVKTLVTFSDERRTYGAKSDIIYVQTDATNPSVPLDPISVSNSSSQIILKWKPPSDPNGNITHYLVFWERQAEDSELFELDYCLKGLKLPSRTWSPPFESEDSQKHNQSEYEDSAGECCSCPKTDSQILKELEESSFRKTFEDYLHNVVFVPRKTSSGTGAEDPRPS
Sequence of Insulin receptor (Homo sapiens) (P06213 763-1382 limits assumed): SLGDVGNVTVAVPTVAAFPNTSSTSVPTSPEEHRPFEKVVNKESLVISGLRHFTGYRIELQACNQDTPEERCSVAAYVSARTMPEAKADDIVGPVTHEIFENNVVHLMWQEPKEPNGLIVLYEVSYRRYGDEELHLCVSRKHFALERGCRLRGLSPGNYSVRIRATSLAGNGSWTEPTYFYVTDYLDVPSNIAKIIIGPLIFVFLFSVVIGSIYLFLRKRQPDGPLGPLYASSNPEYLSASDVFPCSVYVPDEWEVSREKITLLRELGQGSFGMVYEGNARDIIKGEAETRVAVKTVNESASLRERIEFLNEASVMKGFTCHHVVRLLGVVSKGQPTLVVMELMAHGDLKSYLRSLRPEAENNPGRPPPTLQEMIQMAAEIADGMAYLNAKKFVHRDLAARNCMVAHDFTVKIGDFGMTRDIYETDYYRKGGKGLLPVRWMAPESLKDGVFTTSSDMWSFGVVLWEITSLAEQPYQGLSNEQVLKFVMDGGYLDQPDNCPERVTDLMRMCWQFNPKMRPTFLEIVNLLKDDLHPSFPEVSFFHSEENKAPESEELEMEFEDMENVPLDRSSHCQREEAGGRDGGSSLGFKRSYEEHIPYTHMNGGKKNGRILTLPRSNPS

On to `N#CC(C#N)=Cc1cc(O)c(O)c(O)c1`, for which, in series [1], the inhibition was 50%.
On to `C#Cc1cccc(Nc2ncnc3cc(OCCOC)c(OCCOC)cc23)c1` [ERLOTINIB], for which the inhibition result in series [2], in [3], in series [4] and in [5] was “inactive” throughout. The Activity is 97% in the series on DiFi [6]; 100% in the series with HN5 [9]; 24% with HN5 [10]; 56% in the series with HN5 [11]; 9% in the series on DiFi [12]; 0.7% in the series on DiFi [13]. In addition, the Activity in the series on DiFi [14] turned out to be 85%; in the series on DiFi [15], 95%; with DiFi [23] it was 100%; with DiFi [29], 77%; in the series on DiFi [30], 5%; in the series with DiFi [31] it was 18%. The Activity with DiFi [32] came out at 17%; in the series with DiFi [33] it was 21%; in the series on DiFi [34] it was 77%; with DiFi [35] it was 2%; in the series with DiFi [36] it was 21%; in the series on DiFi [37] it was 7.4%. In addition, in the series with DiFi [38], the Activity was 6%. For the same molecule, the IC50 in [7] was 7 µM. The result in the series on HN5 [8], in the series on DiFi [16], in the series with HN5 [17], in the series with DiFi [19], in the series on DiFi [21] and with DiFi [24] was Active. The result in the series on DiFi [25] and with DiFi [26] was Active. The result in the series on DiFi [18], in the series with DiFi [20], with DiFi [22], in the series on DiFi [27] and in the series with DiFi [28] was inactive.
